The text below walks through data of patent US20250346593A1, “IMIDAZO(1,2-1)PYRIDINE DERIVATIVES AS RIPK2 INHIBITORS” (Interline Therapeutics, Inc., priority 2022, published 2025).

pIC50: −log10 of the molar value. Where two headings read alike, the source gives them in different places.

In assay [1] the test system is NF-κB pathway (SEAP) in THP1-Dual cells. The assay can be described thus: THP-1 Dual cell SEAP assay (L18-MDP stimulated). Type of assay: cell-based. The note with it: Homo sapiens, THP1-Dual, read-out: NFkB THP1 IC50.
The target of assay [2] is GST-RIPK2 fusion protein (human RIPK2 amino acids 1-310) (Homo sapiens (Human), UniProt O43353). As to the kind of experiment: RIPK2 binding competition assay (TR-FRET, Tracer 199).
Where [3] appears, read: read-out: RIPK2 IC50, RIPK2 binding competition assay.

GST-RIPK2 fusion protein (human RIPK2 amino acids 1-310), sequence (O43353 1-310): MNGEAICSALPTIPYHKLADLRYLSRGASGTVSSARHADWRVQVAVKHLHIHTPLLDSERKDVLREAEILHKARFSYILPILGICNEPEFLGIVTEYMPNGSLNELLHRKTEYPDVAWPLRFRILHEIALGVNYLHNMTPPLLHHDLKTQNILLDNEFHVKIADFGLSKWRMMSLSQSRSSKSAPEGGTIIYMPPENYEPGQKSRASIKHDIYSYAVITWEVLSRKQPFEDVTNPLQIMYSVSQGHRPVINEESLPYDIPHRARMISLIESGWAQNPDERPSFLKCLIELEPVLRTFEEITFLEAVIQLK

What is called pIC50 is the IC50 on a negative log10 scale, so that one unit is a factor of ten. On to `COc1cc2ncc(-c3cc(F)c(OC)c(NS(=O)(=O)CC(C)C)c3)n2cc1S(=O)(=O)C(C)(C)C` [Example 279, N-(5-(6-(tert-butylsulfonyl)-7-methoxyimidazo[1,2-a]pyridin-3-yl)-3-fluoro-2-methoxyphenyl)-2-methylpropane-1-sulfonamide], for which the pIC50 in assay [1] is over 7.30; in assay [2], over 9.00.

Consider `CCOc1cc2ncc(-c3cc(F)nc(NCCCO)c3)n2cc1S(=O)(=O)C(C)C` [Example 243, 3-({4-[7-ethoxy-6-(propane-2-sulfonyl)imidazo[1,2-a]pyridin-3-yl]-6-fluoropyridin-2-yl}amino)propan-1-ol], for which the pIC50 was over 7.30 in assay [1] and over 9.00 in assay [2] (setting [3]).

Regarding `CCCS(=O)(=O)Nc1cc(OC)cc(-c2cnc3cc(OC)c(S(=O)(=O)C(C)(C)C)cn23)n1` [Example 161, N-(6-(6-(tert-butylsulfonyl)-7-methoxyimidazo[1,2-a]pyridin-3-yl)-4-methoxypyridin-2-yl)propane-1-sulfonamide], the figures for the pIC50 in assay [1] and in assay [2] were 6.00 to 6.60 and 7.70 to 8.60, respectively.

On to `COc1cc(-c2cnc3cc(OC)c(S(=O)(=O)C(C)(C)C)cn23)cc(N)n1` [Example 53, 4-(6-(tert-butylsulfonyl)-7-methoxyimidazo[1,2-a]pyridin-3-yl)-6-methoxypyridin-2-amine], for which the pIC50 is 6.60 to 7.30 in assay [1] and 7.70 to 8.60 in assay [2].

`CCCS(=O)(=O)Nc1cccc(-c2cnc3cc(OC)c(S(=O)(=O)C(C)(C)C)cn23)c1F` [Example 258, N-(3-(6-(tert-butylsulfonyl)-7-methoxyimidazo[1,2-a]pyridin-3-yl)-2-fluorophenyl)propane-1-sulfonamide]: the values for the pIC50 in assay [1] and in assay [2] (setting [3]) were under 6.00 and under 7.70, respectively.

As to `COc1cc2ncc(-c3cc(F)nc(NCC4(O)CC4)c3)n2cc1S(=O)(=O)C(C)(C)C` [Example 208, 1-(((4-(6-(tert-butylsulfonyl)-7-methoxyimidazo[1,2-a]pyridin-3-yl)-6-fluoropyridin-2-yl)amino)methyl) cyclopropan-1-ol], the pIC50 in assay [1] was over 7.30; in assay [2] it was 8.60 to 9.00.

Take `CCCS(=O)(=O)Nc1cc(-c2cnc3cc(OC)c(S(=O)(=O)C(C)(C)C)cn23)cc(OC(F)F)n1` [Example 145, N-(4-(6-(tert-butylsulfonyl)-7-methoxyimidazo[1,2-a]pyridin-3-yl)-6-(difluoromethoxy)pyridin-2-yl)propane-1-sulfonamide]: the pIC50 in assay [1] is 6.00 to 6.60; in assay [2] it was 8.60 to 9.00.

For `CCCS(=O)(=O)Nc1cc(OC(F)F)cc(-c2cnc3cc(OC)c(S(=O)(=O)C(C)(C)C)cn23)c1` [Example 295, N-(3-(6-(tert-butylsulfonyl)-7-methoxyimidazo[1,2-a]pyridin-3-yl)-5-(difluoromethoxy)phenyl) propane-1-sulfonamide], the pIC50 in assay [1] is 6.60 to 7.30; in assay [2], 8.60 to 9.00.

In the case of `CCOc1cc2ncc(-c3cc(F)nc(NCCC(O)CC)c3)n2cc1S(=O)(=O)C(C)C` (racemic) [Example 246, Rac-1-({4-[7-ethoxy-6-(propane-2-sulfonyl)imidazo[1,2-a]pyridin-3-yl]-6-fluoropyridin-2-yl}amino)pentan-3-ol], the negative logarithm of the IC50 (pIC50) in assay [1] was over 7.30; in assay [2], over 9.00.

Regarding `COc1cc2ncc(-c3csnc3OC)n2cc1S(=O)(=O)C(C)(C)C` [Example 60, 4-(6-(tert-butylsulfonyl)-7-methoxyimidazo[1,2-a]pyridin-3-yl)-3-methoxyisothiazole], the pIC50 was under 6.00 in assay [1] and 7.70 to 8.60 in assay [2].

In the case of `CCCS(=O)(=O)Nc1cc(-c2cnc3cc(OC)c(S(=O)(=O)C(C)(C)C)cn23)cc(OC)c1C` [Example 136, N-(5-(6-(tert-Butylsulfonyl)-7-methoxyimidazo[1,2-a]pyridin-3-yl)-3-methoxy-2-methylphenyl)propane-1-sulfonamide], the pIC50 is under 6.00 in assay [1] and 7.70 to 8.60 in assay [2].
